Literature values, collected in patent publication US5545620A, “Synthetic fibronectin fragments as inhibitors of retroviral infection” (priority 1994, dated 1996).

Tested on: cell adhesion
Settings: cited from earlier work

Row | Substance | promotion of cell adhesion
1 | FN-6: fibronectin fragment (1961-1985) SEQ ID NO. 6, restricted to isoforms containing the type IIIcs region (DELPQLVTLPHPNLHGPEILDVPST) | promotes cell adhesion by an α4β1 integrin-dependent mechanism
2 | KNNQKSEPLIGRKKT [FN-2] | promote cell adhesion
3 | YEKPGSPPREWPRPRPGV (YEKPGSPPREVVPRPRPGV) [FN-1] | promote cell adhesion
